The results in this text go back to US4210749A, “Substituted 1,2,4,5-tetrahydro-3H,3 benzazepines” (priority 1979, dated 1980).

What is called LD50 is the dose expected to kill half of the subjects tested. What is called ED50 is the dose at which the effect has come halfway, by size or by number of responders. A word on the NOAEL: it is the highest dose or exposure tested at which no adverse effect was seen.

Series [1] is described as follows: I.P. symptomatology (highest tolerated dose, median lethal dose), Table IV. The series is classed as in vivo. The note with it: in vivo, ip; for MTD: read-out: HTD (highest tolerated dose).
Series [2] has as its system phenylbenzoquinone writhing. Briefly: Phenylbenzoquinone (PBQ) writhing analgesia, Table IV. Format: in vivo. The following applies: sc; S.C.; marked * Median effective dose. Background: An intraperitoneal irritant provokes the stretching counted in writhing tests.
The next series concerns sciatic block. Nature of the series: Local anesthetic sciatic block, Table IV. The following applies: 1%. Format: in vivo.
Series [3] can be described thus: Narcotic antagonism I.P., Table IV. Format: in vivo.
The subject of a further series is morphine analgesia. The series is classed as in vivo, rat. The note with it: Table II.
Series [4] relates to isolated segments of guinea pig ileum (acetylcholine). Nature of the series: Anticholinergic activity: block of acetylcholine in isolated segments of guinea pig ileum.
In series [5] the test system is isolated segments of guinea pig ileum (histamine). Briefly: Antihistaminic activity: block of histamine in isolated segments of guinea pig ileum.
Series [6] is described as follows: Mouse tail stimulation (MST), Table IV. The series is classed as in vivo. The note with it: S.C. On the set-up: unit not given here.
Series [7] in a line: Analgesic activity, hot plate method. The series is classed as in vivo.
Series [8] is described as follows: Analgesic activity, writhing method. The series is classed as in vivo.
Series [9] in a line: Analgesic activity in hot plate and writhing tests, overall comparison.
The nature of series [10]: in vivo. The note with it: po.
Series [11] in a line: in vivo. The following applies: po. The source holds these as a separate data set.

Structures can show the parent of a compound that is named as a salt.

In the case of `COc1ccc2c(c1)CC(C)N(C)CC2` (centres unmarked) [Example 39, 8-Methoxy-2,3-dimethyl-1,2,4,5-tetrahydro-3H,3-benzazepine hydrochloride], in series [1], the LD50 is about 150 mg/kg and the MTD worked out at 10 mg/kg. Moreover, the ED50 in series [2] is over 30 mg/kg. In the series on sciatic block, the “Local Anesthetic Sciatic Block” value is reported as “Positive”. For the same molecule, in series [3], the “Narcotic Antagonism” value is listed as “Negative”.
Turning to `CC(C)=CCN1CCc2ccc(O)cc2CC1` [Example 4, 3-(3,3-Dimethylallyl)-7-hydroxy-1,2,4,5-tetrahydro-3H,3-benzazepine], the “Narcotic antagonist potency relative to pentazocine” value in the series on morphine analgesia is recorded as “more potent antagonist than pentazocine”. The “Conc. for 50% block of Acetylcholine” value in series [4] is on record as 120 μg/20 ml. For the same molecule, in series [5], the “Conc. for 50% block of Histamine” value amounted to 76 μg/20 ml. In [1], the LD50 was 96 mg/kg and the MTD was found to be 30 mg/kg. The “MST (mouse tail stimulation)” value in series [6] is over 56. Besides, the “Local Anesthetic Sciatic Block” value with sciatic block is recorded as “Positive”. The “Narcotic Antagonism” value in series [3] is “Positive”.
As to `COc1ccc2c(c1)CCN(CC=Cc1ccccc1)CC2` [Example 28, 7-Methoxy-3-(3-phenylallyl)-1,2,4,5-tetrahydro-3H,3-benzazepine], the ED50 in series [7] (ip) was over 18 mg/kg; in [7] (po), 125 mg/kg; in series [8] (po) it was 120 mg/kg; in series [8] (sc) it was over 18 mg/kg. The “Narcotic antagonist potency relative to pentazocine” value in the series on morphine analgesia is reported as “about equipotent to pentazocine”. In series [1], this molecule had an LD50 of 60 mg/kg. The MTD in series [1] is 20 mg/kg. Further, the “MST (mouse tail stimulation)” value in series [6] amounted to 10. Further, the “Narcotic Antagonism” value in series [3] is given as “Positive”. The “Analgesic efficacy by route of administration” value in [9] (oral vs parenteral) is “active by the oral route”.
Turning to `COc1ccc2c(c1)CCN(CCc1ccccc1)CC2` [Example 24, 7-Methoxy-3-phenethyl-1,2,4,5-tetrahydro-3H,3-benzazepine], the ED50 in [7] (ip) was 12 mg/kg; in [7] (po) it was over 178 mg/kg; in [8] (po), over 178 mg/kg; in [8] (sc) it was about 11 mg/kg. Also, the “Narcotic antagonist potency relative to pentazocine” value with morphine analgesia is reported as “about equipotent to pentazocine”. In addition, the “Conc. for 50% block of Acetylcholine” value in series [4] is on record as 74 μg/20 ml. The “Conc. for 50% block of Histamine” value in series [5] came to 10 μg/20 ml. Also, the values for the LD50 (in series [1]; in “in vivo [11]”) were over 200 mg/kg and over 1000 mg/kg, respectively. Moreover, the MTD in series [1] is over 50 mg/kg. For the same molecule, the “Local Anesthetic Sciatic Block” value in the series with sciatic block is listed as “Positive”. This molecule also yielded an NOAEL in the series “in vivo [10]” of 178 mg/kg. Further, the Analgesic activity ranking result in [9] was “most active compounds”. Moreover, the “Separation between effective dose and toxic or lethal doses” value in series [9] is “greatest separation between effective dose and toxic or lethal doses”.
As to `C=CCN1CCc2ccc(OC)cc2CC1` [Example 14, 3-Allyl-7-methoxy-1,2,4,5-tetrahydro-3H,3-benzazepine], the ED50 in [7] (ip) was 42 mg/kg; in series [7] (po) it was over 178 mg/kg; in [8] (po), over 178 mg/kg; in series [8] (sc) it was over 56 mg/kg. Further, the “Narcotic antagonist potency relative to pentazocine” value with morphine analgesia is “about equipotent to pentazocine”. Also, the figures for the LD50 (in series [1]; in the series “in vivo [11]”) were 80 mg/kg and over 1000 mg/kg, respectively. Besides, the MTD in series [1] was 60 mg/kg. Further, the “Local Anesthetic Sciatic Block” value in the series on sciatic block was “Positive”. Moreover, the “Narcotic Antagonism” value in series [3] was “Positive”. The same molecule gave an NOAEL in the series “in vivo [10]” of 178 mg/kg.
With `COc1ccc2c(c1)CC(C)N(CCN1CCN(c3ccccc3)CC1)CC2` (centres unmarked) [Example 40, 8-Methoxy-2-methyl-3-[2-(4-phenyl-1-piperazinyl)-ethyl]-1,2,4,5-tetrahydro-3H,3-benzazepine dihydrochloride], in series [1], the LD50 is over 100 mg/kg and the MTD turned out to be 30 mg/kg. The ED50 in series [2] is over 30 mg/kg. Besides, the “Local Anesthetic Sciatic Block” value with sciatic block was “Positive”. In addition, the “Narcotic Antagonism” value in series [3] is “Negative”.
